Tested on: p53
Experiment: Nanoparticle carrier screen in Calu6 cells (p53 Western blot)
Format: cell-based
Details: nmP53 (R196X), exogenous tRNAArg/OP, 48 hr exposure, FIGS. 6B, 9, 10, 12
Protocol: Calu6 cells were seeded at a density of 500,000 cells per well in a 6-well format and allowed to attach over night. For plasmid DNA, 1 μg was transfected using 3 μl of Lipofectamine 2000 using manufacturer recommend protocols. For tRNA^Arg/RNAiMax, 4 μg was transfected using 3 μl of RNAiMax using manufacturer recommended protocols. Particles were diluted in Opti-MEM (Invitrogen), G418 (50 μg) and PTC124 ([…]) was added directly to the media. Nanoparticles were prepared by mixing all delivery components in ethanol, followed by rapid mixing with tRNA in 10 mM citrate buffer pH 4.3, such that the final mole ratio was 25:1 carrier:siRNA, and the carrier mixture of the formulation consisted of molar ratios 50:38:10:2 carrier: cholesterol: DSPC: PEG-lipid. […] After 48 hr, cells were lysed directly in 2× Sample Buffer ((Tris-HCL 250 mM, pH 6.8, 20% Glycerol, 2.5% SDS, 0.1% Bromophenol blue). Cell lysate proteins were separated by electrophoresis on 10% (wt/vol) polyacrylamide gels using a Tris-glycine buffering system and transferred to polyyinylidene fluoride Immobilon membranes (EMD Millipore). Western blot analysis was performed using primary p53 antibody (Santa Cruz Biotechnology, Inc) actin antibody (EMD Millipore), and secondary antibody IRdye-68ORD (Li-Cor) and imaged/quantified using a Li-Cor Odyssey CLx (Li-Cor).

## CN[C@@H]1[C@@H](O)[C@@H](O[C@@H]2[C@@H](O)[C@H](O[C@H]3O[C@H]([C@@H](C)O)[C@@H](O)[C@H](O)[C@H]3N)[C@@H](N)C[C@H]2N)OC[C@]1(C)O [G418]
  p53 expression (Western blot): only minimal p53 expression

## O=C(O)c1cccc(-c2noc(-c3ccccc3F)n2)c1 [PTC124]
  p53 expression (Western blot): only minimal p53 expression
